Data taken from PubChem BioAssay AID624258 (Broad Institute, 2012).
Activity calls are given as the source filed them. The rule behind the calls is not given here.

Experiment: Yeast SKN7 toxicity growth rescue counterscreen, Saccharomyces cerevisiae, plate reader, dose confirmatory (AID 624258);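 note: growth read after three days of incubation at 30 °C; 0% = median of neutral control wells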
Conditions: S. cerevisiae SKN7-toxicity growth rescue, plate reader; at 6.8 µM (top of the series)
In the case of `O=C(c1cc([N+](=O)[O-])cc([N+](=O)[O-])c1)N(Cc1nnc(-c2ccccc2Cl)o1)C1CC1`, the growth rescue activity is reported as -38% (inactive).
In the case of `CC(C)NC(=O)NC(=O)COC(=O)c1ccc([N+](=O)[O-])cc1Cl`, the growth rescue activity is reported as -6.28% (inactive).
With `Cc1ccc(C(=O)C(SC(C)(C)C)n2cncn2)cc1` (configuration not stated) the growth rescue activity was 27.6% (inactive).

Same assay, conditions: S. cerevisiae SKN7-toxicity growth rescue, plate reader; at 19.5 µM (top of the series)
With `CC(=O)/C=C(\C)Nc1ccccc1O` the growth rescue activity was -6.16% (inactive).
With `O=C(O)c1ccccc1NC(c1ccccc1)c1ccc2cccnc2c1O` (configuration not stated) the growth rescue activity was -59.1% (inactive).
In the case of `CCOC(=O)c1nnn(-c2ccc([N+](=O)[O-])cc2[N+](=O)[O-])c1C`, the growth rescue activity is reported as 17.3% (inactive).
For `Cc1[nH]n(C(N)=S)c(=O)c1N=Nc1ccc2ccccc2c1`, the growth rescue activity was -41.4% (inactive).
In the case of `O=C(Oc1ccccc1C(=S)N1CCOCC1)c1ccc([N+](=O)[O-])cc1[N+](=O)[O-]`, the growth rescue activity is reported as -8.27% (inactive).
With `CC(=O)Oc1ccc(OC(C)=O)c(SCCCCCCl)c1` the growth rescue activity was -46.3% (inactive).
For `Oc1ccc(N=Nc2ccc3c(c2)OCCO3)c2cccnc12`, the growth rescue activity was -42.4% (inactive).
With `Cn1c(SCC(=O)N2c3ccccc3Sc3ccc(Cl)cc32)nnc1-c1ccco1` the growth rescue activity was -51.2% (inactive).
For `O=[N+]([O-])c1ccc(S(=O)Cc2ccccc2)c([N+](=O)[O-])c1` (configuration not stated), the growth rescue activity was -45.8% (inactive).
For `CC(C)C(=O)NC(c1cccc([N+](=O)[O-])c1)c1ccc2cccnc2c1O` (configuration not stated), the growth rescue activity was -62.7% (inactive).
For `Cn1cncc1C#Cc1c(-c2ccsc2)sc2ccccc12`, the growth rescue activity was -77.3% (inactive).
For `CCCCCCCCCCSc1n[nH]c(N)n1`, the growth rescue activity was -93.1% (inactive).
For `CC1(C)CC(=O)C(N=Nc2ccc3ncsc3c2)=C(O)C1`, the growth rescue activity was 0.603% (inactive).
For `Cc1ccc(Cl)cc1NC1=C/C(=N\S(=O)(=O)c2cccs2)c2ccccc2C1=O`, the growth rescue activity was -24.9% (inactive).
For `Cc1nc2ccc(C(C(F)(F)F)(C(F)(F)F)C(F)(F)F)cc2[nH]1`, the growth rescue activity was -85.7% (inactive).
In the case of `N#Cc1c(-c2ccc(Cl)cc2)n(O)c2ccccc12`, the growth rescue activity is reported as -88.7% (inactive).
In the case of `CC(=O)NC(c1cccc([N+](=O)[O-])c1)c1ccc2cccnc2c1O` (configuration not stated), the growth rescue activity is reported as -39.9% (inactive).
With `Oc1c(I)cc(Cl)c2cccnc12` the growth rescue activity was -81.1% (inactive).
With `CCOC(=O)c1c2c(n(-c3ccc(OC)cc3)c1C)C(=O)C(=O)c1ccccc1-2` the growth rescue activity was -68% (inactive).
For `CCCCCCn1c(=O)c(C(=O)Nc2ncccc2C)c(O)c2ccccc21`, the growth rescue activity was -12.8% (inactive).
With `CC(C)(C)c1ccc(S(=O)(=O)/N=C2\C=C(NS(=O)(=O)c3ccccc3)C(=O)c3ccccc32)cc1` the growth rescue activity was -5.91% (inactive).
For `O=C(N/N=C/c1cc(Br)cc(Cl)c1O)c1ccc2c(c1)OCO2`, the growth rescue activity was -36.6% (inactive).
For `O=S(=O)(Nc1cc(Sc2ncn[nH]2)c(O)c2ccccc12)c1ccccc1`, the growth rescue activity was -4.91% (inactive).
In the case of `CC12CC3(C)CC(C)(C1)CC(NC(=O)N1CCCC1)(C2)C3`, the growth rescue activity is reported as -73.5% (inactive).
In the case of `O=C1C(Cl)=C(NCc2cccnc2)C(=O)c2ccccc21`, the growth rescue activity is reported as 26.7% (inactive).
For `Cc1nc2ccc(NC(=O)Cc3ccc4c(c3)OCCO4)cc2s1`, the growth rescue activity was 28.8% (inactive).
With `Oc1ccc(/C=N/Nc2ccc(C(F)(F)F)cn2)c(O)c1` the growth rescue activity was -73.7% (inactive).
With `O=C(CN1CCN(c2ncc(C(F)(F)F)cc2Cl)CC1)NCCNc1ncc(C(F)(F)F)cc1Cl` the growth rescue activity was -35.8% (inactive).
In the case of `Oc1ccccc1-c1cc(-c2ccc3c(c2)OCCO3)n[nH]1`, the growth rescue activity is reported as 2.6% (inactive).
In the case of `O=C1c2cccc(Cl)c2C(=O)c2c1cccc2N1CCCC1`, the growth rescue activity is reported as 11.5% (inactive).
With `CCOc1ccc(S(=O)(=O)Nc2cc(SCC(=O)O)c(O)c3ccccc23)cc1` the growth rescue activity was 21.7% (inactive).
For `CC(C)(C)OC(=O)N1CCC(c2cc(-c3cccs3)n[nH]2)CC1`, the growth rescue activity was -58.6% (inactive).
In the case of `O=C(NCc1ccccc1)c1ccc2nccnc2c1`, the growth rescue activity is reported as 17.6% (inactive).
For `O=C1CC(c2cccc([N+](=O)[O-])c2)c2ccc3ccccc3c2N1` (configuration not stated), the growth rescue activity was 47.4% (inactive).
